# Data taken from patent publication US20240133870A1, “COMBINED TREATMENT FOR CANCER” (Yeda Research and Development Co. Ltd., priority 2021, published 2024).
# B1: CCL4: secreted factor of the secretome library (protein, UniProt P13236 24-92, looked up)
# C-C motif chemokine 4: APMGSDPPTACCFSYTARKLPRNFVVDYYETSSLCSQPAVVFQTKRSKQVCADPSESWVQEYVYDLELN
# B2: TGFB3: Transforming Growth Factor Beta 3 (protein, UniProt P10600 301-412, looked up)
# Transforming growth factor …: ALDTNYCFRNLEENCCVRPLYIDFRQDLGWKWVHEPKGYYANFCSGPCPYLRSADTTHSTVLGLYNTLNPEASASPCCVPQDLEPLTILYYVGRTPKVEQLSNMVVKSCKCS
# B3: LTA: lymphotoxin alpha (protein, UniProt P01374 35-205, looked up)
# Lymphotoxin-alpha: LPGVGLTPSAAQTARQHPKMHLAHSTLKPAAHLIGDPSKQNSLLWRANTDRAFLQDGFSLSNNSLLVPTSGIYFVYSQVVFSGKAYSPKATSSPLYLAHEVQLFSSQYPFHVPLLSSQKMVYPGLQEPWLHSMYHGAAFQLTQGDQLSTHTDGIPHLVLSPSTVFFGAFAL
# B4: mFGF2: mouse FGF2 (protein, UniProt P15655 10-154, looked up)
# Fibroblast growth factor 2: PALPEDGGAAFPPGHFKDPKRLYCKNGGFFLRIHPDGRVDGVREKSDPHVKLQLQAEERGVVSIKGVCANRYLAMKEDGRLLASKCVTEECFFFERLESNNYNTYRSRKYSSWYVALKRTGQYKLGSKTGPGQKAILFLPMSAKS
# B5: IL1A: secreted factor of the secretome library (protein, UniProt P01583 113-271, looked up)
# Interleukin-1 alpha: SAPFSFLSNVKYNFMRIIKYEFILNDALNQSIIRANDQYLTAAALHNLDEAVKFDMGAYKSSKDDAKITVILRISKTQLYVTAQDEDQPVLLKEMPEIPKTITGSETNLLFFWETHGTKNYFTSVAHPNLFIATKQDYWVCLAGGPPSITDFQILENQA
# B6: ACHE: acetylcholinesterase (protein, UniProt P22303 32-614, looked up)
# Acetylcholinesterase: EGREDAELLVTVRGGRLRGIRLKTPGGPVSAFLGIPFAEPPMGPRRFLPPEPKQPWSGVVDATTFQSVCYQYVDTLYPGFEGTEMWNPNRELSEDCLYLNVWTPYPRPTSPTPVLVWIYGGGFYSGASSLDVYDGRFLVQAERTVLVSMNYRVGAFGFLALPGSREAPGNVGLLDQRLALQWVQENVAAFGGDPTSVTLFGESAGAASVGMHLLSPPSRGLFHRAVLQSGAPNGPWATVGMGEARRRATQLAHLVGCPPGGTGGNDTELVACLRTRPAQVLVNHEWHVLPQESVFRFSFVPVVDGDFLSDTPEALINAGDFHGLQVLVGVVKDEGSYFLVYGAPGFSKDNESLISRAEFLAGVRVGVPQVSDLAAEAVVLHYTDWLHPEDPARLREALSDVVGDHNVVCPVAQLAGRLAAQGARVYAYVFEHRASTLSWPLWMGVPHGYEIEFIFGIPLDPSRNYTAEEKIFAQRLMRYWANFARTGDPNEPRDPKAPQWPPYTAGAQQYVSLDLRPLEVRRGLRAQACAFWNRFLPKLLSATDTLDEAERQWKAEFHRWSSYMVHWKNQFDHYSKQDRCSDL
# Key:
# [1] = system: UACC62 melanoma BRAF (V600E) cell line; assay: Human and mouse factor mediated resistance to vemurafenib in vitro; format: cell-based; settings: for factor-mediated resistance to vemurafenib: FGF2 25 ng/ml
# Description: P-value of the rScore abrogation following the addition of FGFRi was calculated by two-sided t-test. ** P<0.01.
# [2] = system: SK-MEL-5 BRAF (V600E) melanoma cells; assay: Co-culture of stroma (WI-38 or HS-5) and cancer cells; format: cell-based, human
# Description: SK-MEL-5 BRAF (V600E) melanoma cells were co-cultured with the lung-derived stromal cell line WI-38 or with the bone marrow-derived stromal cell line HS-5 with or without vemurafenib (4 μM). […] Vehicle—DMSO, EGFRi—gefitinib (0.1 μM), EGFRi/HER2i—lapatinib (10 nM), METi—crizotinib (0.1 μM), FGFRi—AZD4547 (50 nM), NFkB/TNFRi—CAPE (10 μM), TGFBRi-LY2109761 (0.5 μM), gp130i—SC144 (1 nM). […] Error bars represent standard error. […] Error bars represent standard error. […] Human BRAF (V600E) melanoma cell lines UACC62 or G361 were used to generate xenograft tumor models in various tissues of nude mice. When tumors reached a volume of 500-700 μmm^3, they were resected, sliced, and cultured ex-vivo in the presence of different drug combinations or DMSO control. Following 4 days of drug treatment, slices were fixed, embedded in paraffin blocks, and subjected to immunohistochemistry, using anti-pERK antibody, or to immuno-fluorescence, using anti-pFGFR1 antibody. BRAFi (vemurafenib, 4 μM), FGFRi (AZD4547, 2 μM). Scale bar represents 50 μm.
# Four hours later, the melanoma BRAF (V600E) mutated cell line SK-MEL-5 was seeded on top of the stromal cells at a concentration of 1700 cells per well, or seeded without stroma. […] Concentrations of the inhibitors were based on dose curves with SK-MEL-5. For each inhibitor of potential mechanism of resistance, the maximal concentration with minimal effect (toxicity) on cell growth was selected (Cmax).
# To compare rScore value of stroma-mediated resistance with or without a given inhibitor, the rScore values of each inhibitor in the presence of stroma, was calculated. As a reduction in rScore may stem from mere toxicity of the inhibitor, rather than the abrogation of the stroma mediated resistance, each inhibitor rScore was penalized by its toxicity.
# rScoreinhibitor=rScoreinhibitor+(rScorestroma−rScoreinhibitor)*tOxicitY(Cmax)inhibitor
# human NSCLC tumor biopsy = assay: EVOC of NSCLC patient biopsies, viability; format: cell-based; settings: treatment-naïve patient; osimertinib 4 μM alone
# Text: Error bars represent standard error. […] Scale bar represents 50 μm. […] Error bars represent standard error. […] Scale bar represents 50 μm.
# Scale bar represents 50 μm. […] Scale bar represents 50 μm. […] Scale bar represents 50 μm.
# [3] = system: BRAF (V600E) melanoma cell lines; assay: High-throughput secretome screen of GFP-labeled cells (rScore, bScore, ranks); format: cell-based, human; settings: for effect on resistance to BRAF/MEK inhibition (rScore sorted, 297 factors): UACC62 cell line
# Description: Cell lines—All cell lines (Table 1 hereinbelow) were cultured in DMEM supplemented with 100 units/ml Penicillin and Streptomycin, 2 μmM Glutamine, 1 μmM Pyruvate and 10% FCS, and maintained in a humidified incubator at 37° C. and 5% CO2. Cells were routinely tested for Mycoplasma contamination by PCR. To generate stable cell lines constitutively expressing GFP, cells were infected with lentivirus bearing plasmid pLEX_TRC206 and sorted by FACS to enrich for GFP positive population. For the in-vitro experiments, human cancer cell lines which constitutively expressed GFP were treated with various cytotoxic and targeted drugs (see Table 1 hereinbelow); and the effect of different secreted factors (Table 2 hereinbelow) on the innate resistance to a drug based on the cells' GFP level was determined.
# High throughput in-vitro screens—For high-throughput screens or drug dose curves, cells were counted by Vi-Cell XR (Beckman coulter). Cells were seeded on 384 wells plates (Corning, 3712) using the EL406 washer dispenser (BioTek). Liquid handling of medium and drugs was effected by CyBi (WellFlex vario, CyBio). GFP fluorescence of cells was measured at 477/517 nm (excitation/emission) using Cytation3 (BioTek). Due to fluorescence reading bias at plate margins and corners, these margins were discarded for analysis.
# High-throughput secretome screens—To screen for the effect of secreted factors on the response of cell lines to different drugs, the following seven-days procedure was performed. On day 0, GFP expressing cells were seeded at 1500-2000 cells per well on 384-wells plates (Corning, 3712), depending on the cell line's proliferation rate. Each plate was seeded with one cell line. At day 1, each plate was treated with the secretome library (Table 2 hereinabove), one well per factor. Immediately afterwards, each plate was treated either with a drug (Table 1 hereinabove) at the EC90 concentration or with DMSO control. The CyBi liquid handler was used to treat each plate with a drug and the secretome library as well as to replace the medium, drug and secreted factors following 3 days of incubation (day 4). Cell fluorescence was read at days 1, 4 and 7 by Cytation3, and for some of the experiments at day 6 as well. Wells of interest were imaged at day 7 using the Operetta (PerkinElmer).
# (2) Based on observations, the plate area spanning rows 4-13 and columns 4-21 was hardly affected by plate margins biases. This area is referred to herein as plate core. To control for row specific and column specific biases, plate outliers (Zscore>4 or Zscore<−4) and edges were masked. Next, to capture row and column (col) biases for the i-th row and the j-th column, the bias factor was calculated:
# Upon QC completion, 199 experiment plates and 79 control (DMSO) plates were left for further analysis. • 4—Scoring methods-A GFP value for wells without secretome factors was obtained by averaging over the plate internal control wells. Those wells contained the solvents used in the secretome library. pScore: The effect of the secreted factors on proliferation under DMSO was evaluated using pScore (proliferation score). Values were given in percent units.
# rScore: The effect of the secreted factors on resistance to anti-cancer drugs was evaluated using rScore (rescue score). rScore was assigned to a given factor under two conditions: • 1. drug effect was >30% (residual drug growth<0.7) • 2. proliferation ratio between factor treated and untreated cells in the presence of drug was higher than one:
# rSscore=S−S*residual drug growth
# Based on manual inspection of the rScore distribution across the data, the threshold for a potential effect on drug resistance was set to 0.2 (FIGS. 8A-D).
# (*) Negative values were considered as zero. […] Groups with less than 4 experiments were discarded, finally resulting in 13 groups of experiments (FIG. 1E). […]
# [4] = 80 experiments of BRAF (V600E) mutated melanoma cell lines treated with BRAF/MEK inhibitors
# [5] = 80 experiments of BRAF (V600E) mutated melanoma cell lines treated with BRAF/MEK inhibitors, in multiple experiments
# [6] = vemurafenib 2 μM, mTNF 50 ng/ml
molecule,measurement,setting,value
"FC(F)(F)c1nnc2c(Sc3ccccc3)nc3ccc(Cl)cc3n12 [R7050, reference compound]",toxicity to UACC62,[1]; all concentrations tested,not toxic
same,abrogation of mouse TNF mediated resistance,"[1]; vemurafenib 2 μM, mTNF 50 ng/ml, range of concentrations",does not abrogate the mouse TNF mediated resistance
CCCS(=O)(=O)Nc1ccc(F)c(C(=O)c2c[nH]c3ncc(-c4ccc(Cl)cc4)cc23)c1F [vemurafenib],rScore of stroma-conferred resistance,[2]; co-culture with bone-marrow derived stromal cell line HS-5,> 0.2
same,rScore of stroma-conferred resistance,[2]; co-culture with lung-derived stromal cell line WI-38,> 0.2
C=CC(=O)Nc1cc(Nc2nccc(-c3cn(C)c4ccccc34)n2)c(OC)cc1N(C)CCN(C)C [osimertinib],cancer cell viability,human NSCLC tumor biopsy,did not affect cancer cell viability
"FGF2: human FGF2, recombinant secreted factor, FGFR ligand",rank by rScore values (resistance),[3]; [4],3
same,rScore,[3]; [5],above 0.2
same,"effect on resistance to BRAF/MEK inhibition (rScore sorted, 297 factors)",[3],strongest effect on resistance
same,factor-mediated resistance to vemurafenib,[1]; [6],mediated resistance to vemurafenib
B1,"effect on resistance to BRAF/MEK inhibition (rScore sorted, 297 factors)",[3],strongest effect on resistance
B2,rank by bScore values (synergism),[3]; [4],−3
same,bScore,[3]; [5],below −0.15
B3,"effect on resistance to BRAF/MEK inhibition (rScore sorted, 297 factors)",[3],strongest effect on resistance
B4,factor-mediated resistance to vemurafenib,[1]; [6],mediated resistance to vemurafenib
B5,"effect on resistance to BRAF/MEK inhibition (rScore sorted, 297 factors)",[3],strongest effect on resistance
B6,synergism with BRAF and MEK inhibition,[3]; multiple melanoma cell lines,synergistic effect
